The target of data set [1] is T1, TbKKT19 (Trypanosoma brucei, UniProt Q382T9).
T1 construct: gene Tb11.01.4250; recombinant His-tagged, full-length TbKKT19
T1 sequence (Q382T9 1-484): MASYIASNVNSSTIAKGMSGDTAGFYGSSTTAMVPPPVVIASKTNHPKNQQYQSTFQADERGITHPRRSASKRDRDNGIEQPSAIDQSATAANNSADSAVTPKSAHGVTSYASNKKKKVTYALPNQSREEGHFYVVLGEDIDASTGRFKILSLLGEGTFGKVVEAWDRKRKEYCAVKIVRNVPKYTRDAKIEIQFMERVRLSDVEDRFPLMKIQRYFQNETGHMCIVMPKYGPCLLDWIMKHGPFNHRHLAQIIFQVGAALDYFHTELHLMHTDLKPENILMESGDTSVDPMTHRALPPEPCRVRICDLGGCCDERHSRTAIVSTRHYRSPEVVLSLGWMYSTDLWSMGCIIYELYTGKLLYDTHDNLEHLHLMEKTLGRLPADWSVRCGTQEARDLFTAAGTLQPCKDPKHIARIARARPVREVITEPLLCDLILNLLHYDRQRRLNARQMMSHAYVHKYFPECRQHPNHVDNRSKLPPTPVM
Kind of data set: ADP Hunter Plus kinase assay, 10-point IC50, with technology counterscreen; repurchased and reconfirmed. The data set is classed as biochemical.

Data set [2] deals with T1, TbKKT19. Kind of data set: ADP Hunter Plus kinase assay, KKL peptide, […] ATP; potency shift at […] ATP. The class given is biochemical.
Substrate in the data set “purified protein”: Nc1ncnc2c1ncn2[C@@H]1O[C@H](COP(=O)(O)OP(=O)(O)OP(=O)(O)O)[C@@H](O)[C@H]1O
Kind of data set: purified protein. The data set is classed as biochemical, Trypanosoma brucei. Particulars: ATP binding site.

Take `CCN(Cc1ccc(/C=C2/C(=O)Nc3ccccc32)o1)S(C)(=O)=O` [compound 1]: the IC50 at TbKKT19 [1] stood at 18.9 µM.

As to `O=C(Nc1ccc2cn[nH]c2c1)c1c(Cl)cccc1Cl` [compound 2], at TbKKT19 [1], the half-maximal inhibitory concentration (IC50) amounted to 14.9 µM.

As for `COc1cc(O)c2c(c1)[C@H]1O[C@@H]1C[C@H](O)[C@H](O)C(=O)/C=C\C[C@H](C)OC2=O` [hypothemycin], at TbKKT19 [2], the IC50 turned out to be 0.065 µM.

On to `CN[C@@H]1C[C@H]2O[C@@](C)([C@@H]1OC)n1c3ccccc3c3c4c(c5c6ccccc6n2c5c31)C(=O)NC4` [staurosporine], for which, at TbKKT19 [2], the IC50 amounted to 0.288 µM.

B1: TbKKT19 (Trypanosoma brucei brucei TREU927) (protein)
chain: MASYIASNVNSSTIAKGMSGDTAGFYGSSTTAMVPPPVVIASKTNHPKNQQYQSTFQADERGITHPRRSASKRDRDNGIEQPSAIDQSATAANNSADSAVTPKSAHGVTSYASNKKKKVTYALPNQSREEGHFYVVLGEDIDASTGRFKILSLLGEGTFGKVVEAWDRKRKEYCAVKIVRNVPKYTRDAKIEIQFMERVRLSDVEDRFPLMKIQRYFQNETGHMCIVMPKYGPCLLDWIMKHGPFNHRHLAQIIFQVGAALDYFHTELHLMHTDLKPENILMESGDTSVDPMTHRALPPEPCRVRICDLGGCCDERHSRTAIVSTRHYRSPEVVLSLGWMYSTDLWSMGCIIYELYTGKLLYDTHDNLEHLHLMEKTLGRLPADWSVRCGTQEARDLFTAAGTLQPCKDPKHIARIARARPVREVITEPLLCDLILNLLHYDRQRRLNARQMMSHAYVHKYFPECRQHPNHVDNRSKLPPTPVM
notes: recombinant His-tagged, full-length TbKKT19
On to B1, for which, in “purified protein”, the Michaelis constant (Km) is 102 µM.

Values taken from article PMC6544269, “Identification of inhibitors of an unconventional Trypanosoma brucei kinetochore kinase” (PLoS ONE, 2019).
